Data taken from patent publication US7700106B2, “Therapeutic agent for ulcerative colitis” (priority 2001, dated 2010).

Experiments:
[1] = tested on: mice
[2] = tested on: Fusobacterium varium; experiment: Susceptibility of Fusobacterium varium to antimicrobial agents; type: cell-based
Text: The susceptibility to Fusobacterium varium in antimicrobial agents was examined.

Compound | colonic lesions after enema ([1]; mice, twenty-four hours after enema) | lesion after injection into the rectum ([1]; mouse, injected into the rectum) | resistance of Fusobacterium varium to antimicrobial agent [2]
CCCC(=O)O [butyric acid] | colonic ulcers with crypt abscesses, inflammatory cell infiltration and apoptotic changes | a lesion similar to ulcerative colitis was induced | –
CC[C@H]1OC(=O)[C@H](C)[C@@H](O[C@H]2C[C@@](C)(OC)[C@@H](O)[C@H](C)O2)[C@H](C)[C@@H](O[C@@H]2O[C@H](C)C[C@H](N(C)C)[C@H]2O)[C@](C)(OC)C[C@@H](C)C(=O)[C@H](C)[C@@H](O)[C@]1(C)O [clarithromycin] | – | – | resistant
CC[C@H]1OC(=O)[C@H](C)[C@@H](O[C@H]2C[C@@](C)(OC)[C@@H](O)[C@H](C)O2)[C@H](C)[C@@H](O[C@@H]2O[C@H](C)C[C@H](N(C)C)[C@H]2O)[C@](C)(O)C[C@@H](C)C(=O)[C@H](C)[C@@H](O)[C@]1(C)O [erythromycin] | – | – | resistant
[H]/N=C(/N)N[C@H]1[C@H](O)[C@@H](O)[C@H](O[C@@H]2O[C@@H](C)[C@](O)(C=O)[C@H]2O[C@@H]2O[C@@H](CO)[C@H](O)[C@@H](O)[C@@H]2NC)[C@@H](N/C(N)=N\[H])[C@@H]1O [streptomycin] | – | – | resistant
gentamycin | – | – | resistant
